Paper PMC5608406, “In vivo activation of latent HIV with a synthetic bryostatin analog effects both latent cell "kick" and "kill" in strategy for virus eradication” (PLoS Pathogens, 2017)

Experiments:
primary CD4+ T cells = assay: Induction of CD69 expression in primary CD4+ T cells; assay type: cell-based, human; details: 24h
Experimental: Primary human cells from HIV seronegative individuals were cultured in “RF10 medium” consisting of RPMI 1640 medium supplemented with 10% fetal bovine serum (FBS, Omega Scientific), 100 U/mL of penicillin, and 100 μg/mL of streptomycin (Invitrogen). PBMCs were isolated using Ficoll-Paque Plus separation (GE Healthcare). Primary CD4+ T cells were separated from PBMCs by negative immunomagnetic selection using the CD4+ T cell Isolation Kit (Miltenyi Biotec) according to the manufacturer’s instructions. Cells were then exposed to compound for 24 hours before staining and flow cytometric analysis of CD69 levels. Compound incubations were performed by seeding 10^5 cells/well in 100 μL of RF10 media containing the appropriate concentration of compound in wells of a v-bottomed 96-well plate. Bryostatin 1 (Tocris bioscience) and Prostratin (LC Laboratories) were obtained commercially, and bryologs or prostratin analogs were synthesized as previously described.
For human PBMC CD69 induction experiments, cells were stained with CD69-ECD (Beckman Coulter 6607110). During staining, cells were incubated at 4 °C for 20 minutes, washed with 2% FBS in PBS, and then resuspended in 2% paraformaldehyde. Stained samples were stored at 4 °C.
Flow cytometry samples were analyzed using a Cytomics FC 500 (Beckman Coulter) or a LSR Fortessa (BD Biosciences) flow cytometer. Data were analyzed using FlowJo (v7) software.

murine splenocytes = assay: In vivo bioactivity (CD69/CD25 in splenocytes) in C57/bl6 mice; details: intraperitoneal injection, 24h post-injection, maximum over ascending doses
Experimental: C57/bl6 mice were obtained from the UCLA Department of Radiation Oncology. Compounds were suspended in DMSO and then further diluted in RF10 media to produce a final volume of 500 μL (containing a maximum 4% DMSO). These 500 μL volumes were administered to mice by intraperitoneal injection. Mice were monitored for acute toxicities and then sacrificed at the indicated times. Spleens were removed and disaggregated using a steel mesh, and then filtered through a 40 μm filter to produce a single-cell suspension. The resultant splenocytes were then stained for flow cytometry to analyze surface expression of relevant markers.
During standard flow cytometry staining, samples of 10^5 cells were suspended in 50 μL of a 1:1 dilution of phosphate buffered saline (PBS):Human AB serum (Sigma). Staining of C57/bl6 mouse splenocytes was performed by adding the following anti-mouse fluorescent conjugated antibodies: CD3-Fluorescein isothiocyanate (FITC, eBioscience 11-0032-82); CD69-Phycoerythrin (PE, eBioscience 12-0691-83); and CD4-Allophycocyanin (APC, eBioscience 17-0041-83). In some experiments CD4-APC was replaced with CD25-APC (eBioscience 17-0251-82) and CD4-Phycoerythrin Cyanin 7 (PC7, eBioscience 25-0041-82). For humanized mouse studies, PBMC and splenocytes from BLT mice were stained with anti-mouse CD45-Alexa 700 (Biolegend 103128) and the following anti-human antibodies: CD45-e450 (eBioscience 48-0459-42); CD3-APC-780 (eBioscience; 47-0038-42); CD4-V500 (BD biosciences; 560768); CD8-Peridinin chlorophyll protein (PerCP)-710 (eBioscience 46-0087-42); CD25-PE (Beckman IM0479U); CD69-APC (Biolegend 310910); CD14-PE-Cy7 (Biolegend 325618). Cells were separately stained for anti-human CD45 e450- (eBioscience 48-0459-42) and anti-HA-Biotin PE (Roche 12158167001) followed by a secondary Streptavidin, R-Phycoerythrin Conjugate (Invitrogen s866) stain. This two-step stain was performed by incubating 1-2x10^6 cells at 4°C for 20–30 min, washing with 2% FBS in PBS, then adding the secondary stain, incubating again at 4°C for 20–30 min, and washing with 2% FBS in PBS before fixation with 2% paraformaldehyde. In some experiments, cell death was also evaluated by GHOST Red 780 (Tonbo Biosciences 13–0865) or Zombie Yellow (Biolegend 423104) stains. For this procedure, 10^6 cells were suspended in 100 μL PBS, and then the Zombie yellow and GHOST Red 780 dyes added. Cells were incubated for 20 min at room temperature in the dark and then washed twice with 2% FBS in PBS. Cells were then fixed with 2% paraformaldehyde and incubated for 20 min in the dark. In some experiments cells were then washed with 2% FBS in PBS, resuspended in 1:1 PBS:Human AB serum and then stained for human CD45 and HA, CD3-PE-Cy5 (Biolegend 300310), CD4-ECD (Beckman 6604727), CD8 Per-CO710 (eBioscience 46-0087-42) and CD3-APC (Cell signaling 9602S) as described above.

[1] = phase I, ART-treated patients; cited from earlier work

Row | SMILES | CD69 expression (primary CD4+ T cells) | CD4+ splenocytes expressing CD69 (murine splenocytes) | safety in patients [1]
1 | CC(=O)O[C@@]12C[C@@H](C)[C@@]3(O)[C@@H](C=C(CO)C[C@]4(O)C(=O)C(C)=C[C@@H]34)[C@@H]1C2(C)C [Prostratin] | can each induce expression | – | –
2 | CCC/C=C/C=C/C(=O)O[C@H]1/C(=C/C(=O)OC)C[C@H]2C[C@H]([C@@H](C)O)OC(=O)C[C@H](O)C[C@@H]3C[C@H](OC(C)=O)C(C)(C)[C@](O)(C[C@@H]4C/C(=C/C(=O)OC)C[C@H](/C=C/C(C)(C)[C@]1(O)O2)O4)O3 [bryostatin 1] | can each induce expression | approximately 60% | safe at low doses
